Laboratory results published in patent US7718781B2, “Hydroxypyridonate and hydroxypyrimidinone chelating agents” (The Regents of the University of California, priority 2001, dated 2010).
One block for each compound: values may come before it.

Columns and labels:
[1] = Gd(III) formation constants / pGd (spectrophotometric titration); format: physicochemical
Protocol: The term, “pGd,” as used herein is −log10[Gd^III]free at pH=7.4, and pre-equilibrium concentrations of [L]=10 μM, [Gd^III]=1 μM.
The Bjerrum method can be used for metal complex stability measurements (pH titrations of ligand and metal+ligand). Competition titrations with DTPA can be performed to determine the stability of very stable complexes where direct pH titration methods are inappropriate. Spectrophotometric techniques can be used to monitor metal-ligand complexation reactions, which give rise to changes in the Vis/UV spectra relative to the parent metal and ligand species. With digitally-recording automated spectrophotometeric titrators, factor analysis of the Vis/UV spectra readily determined the species in solution, their individual spectra and the equilibrium constants which interrelate them.
Data for the spectrophotometric determination of formation constants for the compounds of the invention (e.g., Tren-Me2-5,4-HOPY) with gadolinium are generally collected over a pH range of 2-8.
The formation constants are defined by eq 3:
The spectrophotometric data is refined using a model. […]
The pGd values are defined by eq 4: pGd=−log[Gd]free at pH 7.4 for [Gd]=1 μM, [L]=10 μM (4) A pM value can be calculated for many conditions, but it is generally preferable to calculate it for conditions relevant to biological considerations. […]

[2] = literature reports; cited from earlier work
[3] = Experimental determination of water solubility (UV-Vis of saturated solution); format: physicochemical
Protocol: To attain neutral pH, a 0.01 M solution of buffer (HEPES, pKa 7.55) in 0.1 M KCl was made in its acidic form and neutralized to pH 7 with KOH. A dilute solution (of the metal complex) of known concentration was prepared and the UV-Vis spectrum acquired. The extinction coefficient (ε) at the maximum absorbance (at wavelength typically 320-360 nm) was then calculated using Beer-Lambert's law. A saturated solution of the metal complex was then prepared and the UV-Vis spectrum acquired and the maximum absorbance (at wavelength typically 320-360 nm) recorded. In cases where the saturated solution produced extremely high absorbances, the saturated solution was diluted and then the spectrum recorded. Using the known ε, the concentration of the saturated solution was then determined. […] The spectra of the complexes at pH 7 are consistent with the known ML spectra observed from spectrophotometric solution thermodynamics studies of the metal-ligand complexation reactions and indicate the absence of free ligand (note: M=metal, L=ligand).
Typically, preliminary investigation of the minimum solubility of the complexes involves dissolving a known quantity of the complex in a precise volume of solvent. The visible disappearance of particulate matter, over time or instantaneous in some cases, is indicative of complete dissolution of the complex.

rat hepatocytes = details: cited from earlier work
[4] = cited from earlier work
[5] = free complex in water, in vitro; cited from earlier work
[6] = target: human serum albumin (HSA) (Homo sapiens, UniProt P02768); details: cited from earlier work
[7] = Ligand protonation constants (potentiometric titration); format: physicochemical
Protocol: The protonation constants for chelates of the invention are readily determined by potentiometric titrations. These constants are defined by eq 2:
As previously reported, (Turowski et al., Inorg. Chem., 27:474 (1988)) potentiometric titrations were performed using an automated apparatus consisting of a Accumet pH meter (models 925, 825MP or 15), a pH electrode (Orion Ross semi-micro combination, Cole Parmer semi-micro combination or Corning high performance combination electrodes), an autoburet (Metrohm 665 Dosimat or 702 SM Titrino) fitted with a 5 mL piston exchange unit and a jacketed Ar swept titration cell maintained at 25.0° C. by a Lauda K-2/R or Neslab RTE-111 constant temperature circulating bath. The electronic systems were integrated for automated collection with an IBM PC clone.
In this study, ligand and metal complex solutions were titrated from low to high pH and back again if possible. Titrations for the Zn/HOPY systems were not reversible, presumably due to the formation of mixed ML hydroxide complexes. […] Formation constants calculated from the potentiometric titration data were determined with the aid of a FORTRAN non-linear least-squares refinement program (BETA 90). […] Although this is a low concentration for potentiometric titrations, the buffer regions corresponding to the protonation steps are around neutral pH, and so could still be determined.

mice = details: cited from earlier work
[8] = Water proton relaxivity (longitudinal relaxation rate, 20 MHz); format: physicochemical; details: 37° C.
Protocol: The efficacy of a paramagnetic complex as a possible MRI contrast agent depends on its ability to catalyze the nuclear magnetic relaxation rate of solvent protons (Lauffer, R. B., Chem. Rev., 87, 901 (1987); Tweedle, M. F.; Kumar, K. In Magnetic Resonance Imaging (MRI) Contrast Agents; Clarke, M. I., Sadler, P. J., Eds.; Springer: Berlin, Germany, Vol. 2, p. 1 (1999); Koenig et al., Prog. NMR Spectrosc., 22:487 (1990)). This property, which is measured in terms in relaxivity, r1p, is defined as the enhancement of the water proton longitudinal relaxation rate induced by a 1 mML^−1 solution of the paramagnetic compound at a given temperature and magnetic field strength (Aime et al., Chem. Soc. Rev., 27:19 (1998)).
In an exemplary assay, the longitudinal water proton relaxation rate at 20 MHz are measured (typically with a NMR spectrometer operating at 0.5 T) with a reproducibility of the T1 data to ±0.5%. Equipment for the control of temperature (with an accuracy of ±0.1° C.) during these measurements are employed.
Water proton relaxation measurements were carried out at 20 MHz with a Stelar Spinmaster Spectrometer (Mede, Pv, Italy) on 0.5-2 mM solutions of the Gd(III) complex. Spin-lattice relaxation times T1 were measured by the standard inversion recovery method with typical 90° pulse width of […], 16 experiments of 4 scans. The reproducibility of the data is ±1%. The temperature was controlled by a Stelar VTC-91 air-flow heater equipped with copper-constantan thermocouple (uncertainty ±0.1° C). The 1/T1 nuclear magnetic relaxation dispersion (NMRD) profiles of water protons were measured from 0.00024 to 1.2 T (corresponding to the range 0.01-50 MHz of proton Larmor frequencies) at 15, 25 and 39° C. using 1.5 mM solutions of the complex on the field-cycling Koenig-Brown relaxometer of the University of Torino (Italy). The temperature was controlled by circulating freon from an external bath and measured by a thermometer inserted into the freon close to the sample. The reproducibilities of the measured T1 values were estimated to be ±2%. […]

[9] = literature; cited from earlier work

Sequence of human serum albumin (HSA) (P02768 25-609): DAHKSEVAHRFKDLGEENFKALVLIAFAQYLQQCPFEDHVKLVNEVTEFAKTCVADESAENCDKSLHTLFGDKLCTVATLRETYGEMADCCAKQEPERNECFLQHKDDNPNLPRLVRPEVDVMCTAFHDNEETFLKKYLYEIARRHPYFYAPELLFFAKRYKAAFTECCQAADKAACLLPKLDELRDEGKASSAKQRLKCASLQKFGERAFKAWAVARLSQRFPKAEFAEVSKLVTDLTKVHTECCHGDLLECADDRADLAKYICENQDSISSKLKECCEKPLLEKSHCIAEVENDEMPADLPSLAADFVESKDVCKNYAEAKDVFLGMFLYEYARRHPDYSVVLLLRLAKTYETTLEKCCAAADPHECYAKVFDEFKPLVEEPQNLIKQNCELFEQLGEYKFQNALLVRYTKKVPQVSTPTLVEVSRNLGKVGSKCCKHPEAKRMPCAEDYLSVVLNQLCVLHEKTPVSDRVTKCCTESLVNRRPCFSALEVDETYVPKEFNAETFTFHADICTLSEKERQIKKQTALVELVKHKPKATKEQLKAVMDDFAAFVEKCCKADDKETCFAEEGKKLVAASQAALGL

Structure (SMILES): Cn1ccc(C(=O)NCCN(CCNC(=O)c2ccn(C)c(=O)c2O)CCNC(=O)c2ccn(C)c(=O)c2O)c(O)c1=O [Formula 7, tris[(3-hydroxy-1-methyl-2-oxo-1,2-didehydropyridine-4-carboxamido)ethyl]amine]
pH range over which speciation in water is unchanged ([1]; calculated for 1 μM Gd and 10 μM ligand (FIG. 5)): 5.5-10
solubility in water of the Gd(III) complex [2]: about 0.1 mM
Water Solubility (pH 7, 25° C.) [3]: 0.1 mM

Structure (SMILES): O=C([O-])CN(CCN(CC(=O)[O-])CC(=O)[O-])CCN(CC(=O)[O-])C(COCc1ccccc1)C(=O)[O-].[Gd+3] (stereo not drawn) [Gd-BOPTA]
relaxivity in rat hepatocytes (rat hepatocytes): 30 mM⁻¹ s⁻¹
relaxivity in rat plasma [4]: 6.9 mM⁻¹ s⁻¹
relaxivity in water [5]: 4.4 mM⁻¹ s⁻¹

Structure (SMILES): O=C([O-])CN(CCN(CC(=O)[O-])C[C@H](COP(=O)([O-])OC1CCC(c2ccccc2)(c2ccccc2)CC1)N(CC(=O)[O-])CC(=O)[O-])CC(=O)[O-].[Gd+3].[H+].[H+].[H+] [MS-325]
relaxivity of the HSA adduct [6]: 42.0 mM⁻¹ s⁻¹
relaxivity in water [5]: 6.6 mM⁻¹ s⁻¹

Structure (SMILES): Cn1ccc(C(=O)NCCN(CCNC(=O)c2ccn(C)c(=O)c2O)CCNC(=O)c2ccn(C)c(=O)c2O)c(O)c1=O [TREN-1-Me-HOPO, tris[(3-hydroxy-1-methyl-2-oxo-1,2-didehydropyridine-4-carboxamido)ethyl]amine]
pKa [7]: 6.12
pGd ([1]; pH 7.4, [Gd]=1 μM, [L]=10 μM): 20.3
toxicity to mice (mice): low toxicity
relaxivity (r1) [8]: 10.5 mM⁻¹ s⁻¹
relaxivity relative to [Gd(DTPA)(H2O)] [8]: ~2.5 times
number of coordinated water molecules (q) [9]: 2

pKa [7]: 6.37
Structure (SMILES): Cc1nc(C(=O)NCCN(CCNC(=O)c2nc(C)n(C)c(=O)c2O)CCNC(=O)c2nc(C)n(C)c(=O)c2O)c(O)c(=O)n1C [TREN-HOPY, Tris[(2,3-Dimethyl-5-hydroxy-6-carboxamido-4-pyrimidinone)ethyl]amine]
